The record followed here is patent US20050026982A1, “Composition that consists of alkanedicarboxylic acids and a pharmaceutical active ingredient” (priority 2003, published 2005).

“Also recorded” adds a separate entry of the source. Marks after values point to notes of the source that are not given here.

For the assay, the system named is croton-oil-inflamed mouse skin. The assay can be described thus: Croton oil-induced inflammation on the mouse ear (irritative contact dermatitis model), leukocyte infiltration of the skin. Particulars: metronidazole 0.75%; for Inhibition [%] of the Skin Infiltration of Granulocytes & Monocytes (Myelo-Peroxidase Activity) / Inhibition [%] of the Skin Infiltration of Neutrophilic (Elastase Activity): croton oil dissolving-out on mouse ear, inhibition vs croton oil + vehicle treatment, azelaic acid 20%, methylprednisolone 0.1%, ethanol/isopropyl myristat; for Therapeutic effect in the inflammation model in comparison to the vehicle (peroxidase and elastase activity in the skin): azelaic acid 20% in ethanol/isopropyl myristat. It counts as in vivo. The text has this: The induction of an inflammatory reaction (irritative contact dermatitis) is a common model for pharmacological evaluation of the anti-inflammatory potential of topically or systemically administered test substances (Trancik and Lowe (1985) Evaluation of Topical Nonsteroidal Anti-Inflammatory Agents, Models in Dermatology, H. Maibach and N. J. Lowe. Basel, Karger: 35-42). It has proven effective, i.a., in the testing of non-steroidal antiphlogistic agents as well as in glucocorticoid steroids and is regarded as the most reproducible in-vivo test for the evaluation of topical anti-inflammatory substances (Lorenzetti (1975) Animal to Clinical Correlation of Topical Anti-Inflammatory Efficacy. Animal Models in Dermatology. H. Maibach. Basel Karger: 212-225).
The application of the phorbol ester croton oil to mouse ears results in an acute, inflammatory reaction with edema and immigration of primarily polymorphonuclear granulocytes that reaches its maximum within 24 hours. In this connection, test substances can be administered either preventively (i.e., before administration of the inflammatory stimuli) or simultaneously with croton oil. The croton oil-induced inflammation on the mouse ear is not only a model of irritative and/or allergic contact dermatitis, but also other skin diseases that are associated with a high inflammation and immigration of granulocytes. These include psoriasis, atopic dermatis, common acne and the inflammatory stage of rosacea.
Rosacea is a disease of unknown etiology that is considered by many authors to be in the acne group and is generated on the latter and can remove the latter over the course of time. The disease is divided into three stages, of which in particular Rosacea II and III are characterized by inflammatory nodules, nodes, and patches. A leukocytic infiltrate is found by histology (Braun-Falco et al. (1995) Dermatologie und Venerologie. Heidelberg, Springer). Because of the inflammatory components of these stages with leukocyte infiltration of the skin, the croton oil model reflects aspects of this disease.
The activity included, i.a., the immigrations of leukocytes, measured as peroxidase activity in the skin, as well as the immigration of neutrophilic granulocytes, measured as elastase activity in the skin (Table 1).

Turning to `O=C(O)CCCCCCCC(=O)O` [Azelaic Acid, azelaic acid], the “Inhibition [%] of the Skin Infiltration of Granulocytes & Monocytes (Myelo-Peroxidase Activity)” value (“Inhibition [%] … (Myelo-Peroxidase Activity)” below) was 21 (n.s.)* %; the “Inhibition [%] of the Skin Infiltration of Neutrophilic (Elastase Activity)” value (from here on “Inhibition [%] … (Elastase Activity)”) was 11 (n.s.)* %; the “Therapeutic effect in the inflammation model in comparison to the vehicle (peroxidase and elastase activity in the skin)” value is given as “did not show such high, therapeutic effects; also recorded: do not show such high, therapeutic effects”.
As to `C[C@H]1C[C@@H]2[C@H]([C@@H](O)C[C@@]3(C)[C@H]2CC[C@]3(O)C(=O)CO)[C@@]2(C)C=CC(=O)C=C12` [Methylprednisolone], the “Inhibition [%] … (Myelo-Peroxidase Activity)” value was 90 (p < 0.05)* % and the “Inhibition [%] … (Elastase Activity)” value was 95 (p < 0.05)* %.
As for `Cc1ncc([N+](=O)[O-])n1CCO` [Metroidazole, 1-(2-hydroxyethyl)-2-methyl-5-nitroimidazole], the “Inhibition [%] … (Myelo-Peroxidase Activity)” value is 9 (n.s.)* %; the “Inhibition [%] … (Elastase Activity)” value was 18 (n.s.)* %; the “Therapeutic effect in the inflammation model in comparison to the vehicle (peroxidase and elastase activity in the skin)” value is given as “did not show such high, therapeutic effects; also recorded: do not show such high, therapeutic effects”.
